According to patent US20230374575A1, “METHOD FOR VIRUS DETECTION” (priority 2020, published 2023):
Several values for one entry are separate records, joined by “and”; a condition that tells them apart may be missing. Identical values can stand only once.

Legend:
[1] = test system: Vaccinia Virus, Elstree strain, ATCC VR1549; format: cell-based
[2] = test system: reverse transcriptase (RT); assay: (RT-)qPCR with test substance added, RT reaction (IC RNA template); format: biochemical; details: for maximal non-inhibiting concentration, RT reaction: final concentration in (RT-)PCR, QuantiNova Pathogen Mix, 40 cycles, compared to water control (Examples 1, 2)
[3] = target: T1, Taq polymerase (Thermus aquaticus, UniProt P19821); assay: (RT-)qPCR with test substance added, DNA template; format: biochemical; details: for maximal non-inhibiting concentration, Taq polymerase: final concentration in (RT-)PCR, QuantiNova Pathogen Mix, 40 cycles, compared to water control (Examples 1, 2)
T1 construct: purchased QIAGEN (QuantiNova Pathogen + IC Kit; QIAprep& Viral RNA UM Kit)
T1 sequence (P19821 whole entry): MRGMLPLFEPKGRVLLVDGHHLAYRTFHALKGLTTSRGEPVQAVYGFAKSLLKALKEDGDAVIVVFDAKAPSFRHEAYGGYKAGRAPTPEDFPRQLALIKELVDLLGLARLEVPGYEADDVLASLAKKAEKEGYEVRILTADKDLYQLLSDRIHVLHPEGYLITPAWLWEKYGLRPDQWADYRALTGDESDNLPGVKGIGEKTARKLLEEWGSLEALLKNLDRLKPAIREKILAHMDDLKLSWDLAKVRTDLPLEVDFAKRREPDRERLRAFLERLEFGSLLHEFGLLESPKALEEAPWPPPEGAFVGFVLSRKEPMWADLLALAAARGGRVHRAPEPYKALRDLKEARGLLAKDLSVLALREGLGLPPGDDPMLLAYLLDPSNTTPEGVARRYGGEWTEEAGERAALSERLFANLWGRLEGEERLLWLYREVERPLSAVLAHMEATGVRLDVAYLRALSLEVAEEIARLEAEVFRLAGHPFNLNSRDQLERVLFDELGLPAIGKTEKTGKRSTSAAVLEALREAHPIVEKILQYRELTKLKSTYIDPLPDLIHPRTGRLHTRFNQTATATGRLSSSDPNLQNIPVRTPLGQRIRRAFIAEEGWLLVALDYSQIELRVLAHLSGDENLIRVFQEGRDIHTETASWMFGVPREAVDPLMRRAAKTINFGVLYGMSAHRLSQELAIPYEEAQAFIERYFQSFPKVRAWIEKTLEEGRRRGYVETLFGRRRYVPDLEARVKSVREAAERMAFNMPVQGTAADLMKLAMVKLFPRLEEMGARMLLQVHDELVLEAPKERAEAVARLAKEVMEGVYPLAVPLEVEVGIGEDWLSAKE

[4] = test system: (RT-)PCR reaction; assay: (RT-)PCR compatibility of test substance, reaction as a whole; format: biochemical
[5] = test system: Bovine coronavirus; assay: Virucidal activity test according to DIN EN 14476:2019-10, Bovine coronavirus; format: cell-based, Bovine coronavirus (Betacoronavirus 1); details: for inactivation of Bovine coronavirus (in words): at the tested concentrations (Example 4); for Log10 reduction factor(s) incl. 95% confidence interval(s) against Bovine coronavirus: conc. 1% (DDAC 0.015%, Braunol povidone iodine 0.05%), initial results
Protocol: Analysis was performed by Henkel (Dusseldorf) according to the European norm DIN EN 14476:2019-10.
The following test for virucidal activity of the different test substances were performed by Henkel (Dusseldorf) according to the European norm DIN EN 14476:2019-10. The experimental conditions were identical to those in Example 3 but with a Bovine coronavirus instead of Vaccinia virus.

[6] = test system: in vitro transcribed SARS-CoV-2 genes N1 and N2; format: biochemical
[7] = test system: DNA and/or RNA viruses; assay: Virucidal suspension tests, summary statement; format: cell-based; details: summary of the examples; against DNA and/or RNA viruses
[8] = test system: N1 and N2 genes of SARS-CoV-2; format: biochemical
[9] = Example 6, FIG. 6A, Tween20 at very high concentrations, Tween60 and Brij58 at much lower concentrations
[10] = Example 7, FIG. 7, without Tween20
[11] = Example 8, FIG. 8, substance alone, increasing concentrations, QIAprep&amp reaction mix without Extraction Buffer step

Compound: CCCCCCCCCCCC(=O)OCCOCCOCCOCCOCCOCCOCCOCCOCCOCCOCCOCCOCCOCCOCCOCCOCCOCCOCCOCCOCC(OCCOCCOCCOCCOCCOCCOCCOCCOCCOCCOCCOCCOCCOCCOCCOCCOCCOCCOCCOCCO)C1OCC(OCCOCCOCCOCCOCCOCCOCCOCCOCCOCCOCCOCCOCCOCCOCCOCCOCCOCCOCCOCCO)C1OCCOCCOCCOCCOCCOCCOCCOCCOCCOCCOCCOCCOCCOCCOCCOCCOCCOCCOCCOCCO (centres unmarked) [Tween20, polyoxyethylene (20) sorbitan monolaurate]
- log10 reduction factor(s) incl. 95% confidence interval(s) against Vaccinia Virus, Elstree strain, ATCC VR1549, with clean conditions [1]: 2.00 ± 0.54 log10 and 1.88 ± 0.41 log10
- virucidal activity against Vaccinia virus (in words) [1]: least reduction of the virus titer
- counteracting effect on SDS inhibition of the reverse transcription (in words) ([2]; 3% and 5% Tween20 in the PCR, depending on the Tween20 concentration): significantly reduced
- maximal non-inhibiting concentration, RT reaction [2]: ≤ 0.35%
- counteracting effect on SDS inhibition of the Taq polymerase (in words) ([3]; 3% and 5% Tween20 in the PCR, even at the highest concentrations of SDS tested): reactivates the activity
- maximal non-inhibiting concentration, Taq polymerase [3]: ≤ 0.35%
- enzyme inhibition in (RT-)PCR (in words) ([4]; 0.7% final concentration in (RT-)PCR): some inhibition
- inhibition of the (RT-)PCR (in words) [4, 9]: only a moderate inhibition

Compound: CCCCCCCCCCCCOS(=O)(=O)[O-].[Na+] [SDS, Sodium dodecyl sulfate]
- concentration from which Ct-values increase, reverse transcriptase [2, 10]: ≥ 0.03125%
- concentration from which Ct-values increase, Taq polymerase [3, 10]: ≥ 0.125%
- inhibition of the (RT-)PCR (in words) [4, 11]: significant inhibition

Compound: polyoxyethylene(20) cetyl ether [Brij58]
- inhibition of the (RT-)PCR (in words) [4, 9]: no PCR inhibition at all

Compound: povidone iodine
- reduction of the virus titer [1]: 4 log10 grades
- virucidal activity against Vaccinia virus (in words) [1]: strong virucidal activity
- inactivation of Bovine coronavirus (in words) [5]: effectively inactivated
- Log10 reduction factor(s) incl. 95% confidence interval(s) against Bovine coronavirus ([5]; contact time 15 min): >6.13 ± 0.25 Log10
- Log10 reduction factor(s) incl. 95% confidence interval(s) against Bovine coronavirus ([5]; contact time 60 min): >5.88 ± 0.25 Log10
- maximal non-inhibiting concentration, RT reaction [2]: ≤ 0.0175%
- maximal non-inhibiting concentration, Taq polymerase [3]: ≤ 0.0175%
- inhibition of the (RT-)PCR (in words) [6]: significant inhibition
- reduction of the virus titer [7]: about 4 log10

Compound: polyoxyethylene (20) sorbitan monostearate [Tween60]
- inhibition of the (RT-)PCR (in words) [4, 9]: no PCR inhibition at all

Compound: O=C(O)CCP(CCC(=O)O)CCC(=O)O [TCEP, Tris-(2-carboxyethyl)-phosphin]
- concentration at which Ct-values increase again [6]: ≥ 2 mM
- concentration that neutralizes the inhibitory effect of 0.5% povidone iodine in RT-PCR [6]: 5 mM
- decrease of the Ct-value [6]: about 2

Compound: CCCCCCCCCC[N+](C)(C)CCCCCCCCCC.[Cl-] [DDAC, Didecyldimethylammonium chloride]
- reduction of the virus titer [1]: 4 log10 grades
- virucidal activity against Vaccinia virus (in words) [1]: strong virucidal activity
- inactivation of Bovine coronavirus (in words) [5]: effectively inactivated
- Log10 reduction factor(s) incl. 95% confidence interval(s) against Bovine coronavirus ([5]; contact time 15 min): >5.13 ± 0.25 Log10
- Log10 reduction factor(s) incl. 95% confidence interval(s) against Bovine coronavirus ([5]; contact time 60 min): >4.88 ± 0.25 Log10
- maximal non-inhibiting concentration, RT reaction [2]: ≤ 0.005%
- maximal non-inhibiting concentration, Taq polymerase [3]: ≤ 0.005%
- inhibition of the (RT-)PCR (in words) [4, 11]: significant inhibition
- inhibition of the (RT-)PCR by substance in transport/storage medium (in words) [8]: no inhibition
- reduction of the virus titer [7]: about 4 log10

Compound: CCCCCCCCCCCC[N+](C)(C)[O-] [LDAO, Lauryldimethylamin-N-oxide (N,N-Dimethyldodecylamine N-oxide)]
- inhibition of the RT reaction (in words) ([2]; LDAO at 0.035%, Ecosurf EH-9 at all tested concentrations (0.035-0.7%), compared to water control): slight but acceptable inhibition
- maximal non-inhibiting concentration, RT reaction [2]: 0.035%
- maximal non-inhibiting concentration, Taq polymerase [3]: 0.035%
